Data: ChEMBL document CHEMBL3638976, “Azetidine derivatives” (2014)

Experiments:
Cathepsin S = Cathepsin S (Homo sapiens, UniProt P25774); assay: (§1) Enzyme Inhibition Assay: Enzyme activity is measured by observing the increase in fluorescence intensity caused by cleavage of a peptide substrate containing a fluorophore whose emission is quenched in the intact peptide.Assay buffer: 100 mM potassium phosphate pH 6.5, EDTA-Na 5 mM, Triton X-100 0.001%, DTT 5 mM.Enzymes (all at 1 nM): human and mouse Cathepsin S, Cat K, Cat B, Cat L.Substrate (20 μM): Z-Val-Val-Arg-AMC, except for Cat K which uses Z-Leu-Arg-AMC (both from Bachem).Z=Benzyloxycarbonyl.AMC=7-Amino-4-Methyl-Coumarin.DTT=dithiothreitol.Final volume: 100 μL.Excitation 360 nm, Emission 465 nm.Enzyme is added to the substance dilutions in 96-well microtitre plates and the reaction is started with substrate. Fluorescence emission is measured over 20 minutes, during which time a linear increase is observed in the absence of inhibitor.
Procathepsin L = Procathepsin L (Homo sapiens, UniProt P07711); assay: as §1
Sequence of Procathepsin L (P07711 whole entry): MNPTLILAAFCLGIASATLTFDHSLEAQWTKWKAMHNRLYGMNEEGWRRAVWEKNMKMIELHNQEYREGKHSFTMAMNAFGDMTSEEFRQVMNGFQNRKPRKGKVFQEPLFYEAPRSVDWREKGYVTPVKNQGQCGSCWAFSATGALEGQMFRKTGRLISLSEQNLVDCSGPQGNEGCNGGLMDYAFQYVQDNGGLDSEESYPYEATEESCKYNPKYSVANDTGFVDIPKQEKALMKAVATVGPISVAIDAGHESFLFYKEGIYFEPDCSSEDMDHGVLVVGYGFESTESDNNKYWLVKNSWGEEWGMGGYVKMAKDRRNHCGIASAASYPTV

Sequence of Cathepsin S (P25774 whole entry): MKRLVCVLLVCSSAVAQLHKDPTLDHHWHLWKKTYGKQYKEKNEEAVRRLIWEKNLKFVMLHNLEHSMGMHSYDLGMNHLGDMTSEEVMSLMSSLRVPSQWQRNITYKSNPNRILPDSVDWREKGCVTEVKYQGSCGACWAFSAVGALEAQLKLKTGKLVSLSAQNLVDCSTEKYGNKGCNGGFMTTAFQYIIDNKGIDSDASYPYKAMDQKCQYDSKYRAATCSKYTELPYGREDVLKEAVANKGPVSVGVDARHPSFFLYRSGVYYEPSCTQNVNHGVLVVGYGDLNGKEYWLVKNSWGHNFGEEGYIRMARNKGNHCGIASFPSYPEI

SMILES	IC50 (Cathepsin S) [nM]	IC50 (Procathepsin L) [nM]
C[C@H](Oc1ccc(S(=O)(=O)[C@@H]2C[C@@H](C(=O)NC3(C#N)CC3)N(C(=O)C3(c4ncc(Br)cc4F)CCN3C(=O)OC(C)(C)C)C2)c(Cl)c1)C(F)(F)F (stereo partly drawn)	5.5	188
Cc1cc(-c2ccc(S(=O)(=O)[C@@H]3C[C@@H](C(=O)NC4(C#N)CC4)N(C(=O)C4(c5ncc(Cl)cc5F)CCN4C(=O)OC(C)(C)C)C3)c(Cl)c2)ccn1 (stereo partly drawn)	1.55	523
C[C@H](Oc1ccc(S(=O)(=O)[C@@H]2C[C@@H](C(=O)NC3(C#N)CC3)N(C(=O)C3(c4ncc(Br)cc4F)CN(C)C3)C2)c(Cl)c1)C(F)(F)F	2.13	16.6
Cn1cc(-c2ccc(S(=O)(=O)[C@@H]3C[C@@H](C(=O)NC4(C#N)CC4)N(C(=O)C4(c5ncc(Br)cc5F)CCN4C(=O)OC(C)(C)C)C3)c(Cl)c2)cn1 (stereo partly drawn)	1.12	1160
